# Reference: a melting point compilation (Tetko et al.; mined from patent text by program, amines drawn as free bases though some values may be those of a salt)
row,Compound,melting point [°C]
1,COc1ccc([N+](=O)[O-])c(Nc2ccc3cn[nH]c3c2)n1,261 to 264
2,Cc1nc2c(C(F)(F)F)cccc2c(O)c1C(=O)Nc1nccs1,267
3,CN(C)Cc1ccc(CSCCNC2=NS(=O)(=O)N=C2N2CCCC2)o1,151 to 152
4,CC(C)(C)CCNC(=O)c1ccc(C#N)cc1,154 to 157
5,COC12CC(C(C)COC(=O)c3[nH]c(C)cc3C)CN(C)C1Cc1cn(C)c3cccc2c13 (configuration not stated),128 to 130
6,O=C1COCCN1c1ccc(N2C[C@@H](CCl)OC2=O)cc1,143 to 146
7,CN(C)C(=O)Oc1ccc2c(NCCN3CCOCC3)noc2c1,150
8,Cc1cccc2c1COC(=O)N2,222 to 226
9,O=S1(=O)C(c2ccsc2)=CCC=C1c1ccsc1,162 to 164
10,CCOC(OCC)c1cc(NC(c2ccccc2)(c2ccccc2)c2ccccc2)c(F)c(C(C)(C)C)n1,168 to 170
11,O=c1c2[nH]cnc2n(CC2CCCCC2)c(=O)n1CC1CC1,181
12,CCCCCCC(C)(C)c1cc(OCc2ccccc2)c(C2=C(CC(=O)O)CCC(C)C2)c(OCc2ccccc2)c1 (configuration not stated),69 to 70
13,COCCN1CCc2ccc(Nc3ncc(Cl)c(Nc4ccccc4C(=O)NC(C)C)n3)cc2CC1,186 to 189
14,CC(=O)Oc1ccc(CCC2CC(C)(OC(C)=O)CC(=O)O2)cc1 (configuration not stated),72 to 75
15,COc1ccc(SCCCCCCCC(=O)O)cc1,66 to 68
16,IC#CCSc1cccnc1,114 to 116
17,O=C1N(Cc2ccco2)Cc2cnc(Nc3ccccc3)nc2N1c1cccc(CCO)c1,195
18,Oc1ccc(Cl)c(-n2ccnc2)c1,204 to 205
19,CC(=O)c1ccc2ccc3ccccc3c2n1,113 to 115
20,COc1ccc(C2NC(=O)C2OC(C)=O)cc1 (configuration not stated),110 to 111

row,Compound,melting point [°C]
1,COc1ccc(Sc2[nH]c3cccc4c3c2CC2C4C=C(C)CN2C)cc1 (configuration not stated),> 250
2,CCCc1nc2ccccn2c(=O)c1-c1ccc(Cl)cc1,109 to 110
3,CC(=O)Nc1cc([C@H](O)CN[C@H](C)Cc2ccc(O)cc2)ccc1O,97 to 100
4,Cc1oc(-c2ccc(-c3ccc(-c4nc(CCO)c(C)o4)cc3)cc2)nc1CCO,134 to 135
5,CNC(=O)Nc1scc(C(C)(C)C)c1C#N,212 to 214
6,O=C1C(=O)c2ccccc2C2=C1SCC1(CCN(C(=O)C(Cl)c3ccccc3)CC1)O2 (configuration not stated),125 to 126
7,COc1c(Cl)ccc(-c2nc(C(=O)OC(C)C)cc(N)c2F)c1F,177 to 179
8,CNC(=O)c1ncn2c(=O)n(CCCl)nnc12,120 to 122
9,CC1(C)CC(=O)c2c(Sc3ccccc3)sc(C(=O)N3CCCC3)c2C1,140
10,COc1cccc(CNC(=O)c2nc3scc(C(=O)NCc4ccc(C(=O)O)cc4)c3c(=O)[nH]2)c1,254 to 255
11,O=C(NCc1ccc(Cl)cc1)c1cn2c3c(cc(CN4CCOCC4)cc3c1=O)OC(CN1CCCCC1)C2 (configuration not stated),213 to 215
12,N#Cc1c(O)nc2ccc([N+](=O)[O-])cc2c1O,281 to 282
13,CCOCc1nc2c(N)nc3cc(-c4ccc(Cl)c(Cl)c4)cnc3c2n1CC(C)(C)O,144 to 147
14,Cc1c(F)c(N2CCC(N)C2)c(C)c2c1c(=O)c(C(=O)O)cn2C1CC1 (configuration not stated),96 to 98
15,CCN(CC)c1nc(-c2ccc(OC)c(OC)c2)nc2sc(C#N)c(C)c12,159 to 161
16,COC(=O)CN(CC(=O)OC)c1cc(O)cc(O)c1,200 to 202
17,CCOC(=O)/C=C/c1cnn(C)c1C,82 to 83
18,CCCOc1ccc(-c2scc(-c3ccccc3Cl)c2CC(=O)N=C(N)N)cc1,98 to 99
19,CC(C)Oc1ccc(CCCOc2nn(C)cc2CC(=O)O)c(OCc2ccc(Cl)cc2Cl)c1,102 to 103
20,CCOCc1nc2c(N)nc3ccccc3c2n1NCCCNC(=O)NC(C)C,174 to 177

row,Compound,melting point [°C]
1,O/N=C(\Cl)c1cccc(Cl)c1,58 to 60
2,CCOC(=O)CCC(=O)c1cnc2c(OC)cccc2c1NCc1ccccc1C,152 to 155
3,Cc1ccc(C)c(Nc2ncc(C(=O)O)c(=O)[nH]2)c1,242 to 244
4,Oc1ccc2nc(-c3ccc(O)c(F)c3)cc(-c3ccc(Cl)cc3)c2c1,140 to 147
5,NC1CN(c2c(F)cc3c(=O)c(C(=O)O)cn(C4CC4)c3c2F)CC12OCCO2 (configuration not stated),224 to 226
6,OP(O)C1(NC(c2ccccc2)c2ccccc2)CCCCC1,194 to 196
7,C#CCN(C(=O)c1cn(C)cc1C(F)(F)F)c1cccc2c1C(C)CC2(C)C (configuration not stated),142 to 144
8,N#Cc1ccc(C(=C2CCOC2=O)n2ccnc2)cc1,194 to 197
9,CCC(=NO)c1cc(Br)c(O)c(CN)c1,174 to 175
10,Nc1cc(Cl)nc(SC/C=C/C(=O)N2CCCCC2)n1,159 to 163
11,c1cncc(-c2nnc(NCC3CC3)s2)c1,162 to 165
12,CN(C)Cc1nnc2n1-c1ccc(C(F)(F)F)cc1C(c1ccccc1)=[N+]([O-])C2,188 to 190
13,COc1cccc(S(=O)(=O)c2ccc3c(c2)c(CCN(C)C(=O)OC(C)(C)C)c(C)n3C)c1,123 to 127
14,COC(=O)NNC(=O)Nc1cc(Cl)cc(Cl)c1,246
15,COc1ccc(Cn2c(Cl)nc3c(-c4ccc(Cl)o4)ncnc32)cc1,156 to 157
16,CCC(C)c1ccc2c(c1)C1(O)C(=O)c3ccccc3C1(O)O2 (configuration not stated),134 to 136
17,Cn1cncc1C(O)(c1ccc(Cl)nc1)c1ccc2noc(-c3cccc(Cl)c3)c2c1 (configuration not stated),230
18,CC(C)C(=O)NS(=O)(=O)c1cccc([N+](=O)[O-])c1,136 to 138
19,CC(C)(C)Sc1c(CC(C)(C)C(=O)O)n(Cc2ccc(Cl)cc2)c2ccc(OCc3ccc4ccccc4c3)cc12,213 to 214
20,"COc1ccc(Sc2ccc3c(c2)CCC2N(C)C(=O)CCC32C)cc1 (single isomer, unassigned; (+))",150 to 151

# More lines, now with the values ahead:
row,melting point [°C],Compound
1,72 to 73.5,C#CCOc1cc(C(=O)OC)cc(OC)c1OC
2,91.2 to 92.1,CCC(C)Cc1ccc(C(=O)O)cc1C#N (configuration not stated)
3,108 to 110,CC(C)C(NS(=O)(=O)c1ccc(Br)cc1)C(=O)OC(C)(C)C (configuration not stated)
4,48 to 50,CC1(C)C=C(CS(=O)(=O)c2ccccc2)C(C)(C)CC1
5,146 to 147,NC1=NN(c2cccc(F)c2)CC1
6,61 to 62,C=C(COc1ccccc1C=NO)c1ccccc1
7,184 to 185,COC(=O)c1ccc2c(C(C(=O)NS(=O)(=O)c3ccc(C)cc3OC)c3ccc4c(c3)OCO4)cn(C)c2c1 (configuration not stated)
8,89 to 91,OCCC#Cc1ccc2ccccc2n1
9,226,NS(=O)(=O)c1cccc(-c2cccc(-c3nc(-c4ccc(Cl)s4)cc(C(F)(F)F)n3)c2)c1
10,129 to 130,Nc1cc(Cl)c([N+](=O)[O-])cc1OC(=O)c1cccc(C(=O)Oc2cc([N+](=O)[O-])c(Cl)cc2N)c1
11,49,CCCCCCC1CCC2C(CCC3CC(=O)CCC32)C1 (configuration not stated)
12,49.3 to 50,CCCCCCC(O)CC(=O)O (configuration not stated)
13,258 to 260,COc1cccc(CNC(=O)c2nc3ccc(-c4nnn[nH]4)cc3c(=O)[nH]2)c1
14,289,N#Cc1cnc(Nc2ccc(F)cc2)nc1-c1ccc(N)nc1
15,191 to 192,O=C(Nc1c(C(O)(C(F)(F)F)C(F)(F)F)ccc2ccccc12)c1ccc(C(F)(F)F)cc1
16,69 to 70,O=C(CC(=O)C1CC1)c1cccnc1
17,227 to 229,CC(C)(CO)c1ccc(C(=O)Nc2cn3cc(C(F)(F)F)ccc3n2)cc1
18,64 to 66,CCOCOC1CCC2(C)C(=CCC3C2CCC2(C)C(C(C)CCCC(C)C)CCC32)C1 (configuration not stated)
19,190,COc1ccc2c3c1c(C)c(-c1ccc(O)cc1)n3CC(CCO)O2 (configuration not stated)
20,66 to 66.5,O=C(c1ccccc1)C1(c2ccccc2)COCO1 (configuration not stated)
21,215 to 220,Cc1cccc(NC(=O)c2cc(C(F)(F)F)nn2-c2ccccc2Cl)c1NC(=O)C(C)C

row,melting point [°C],Compound
1,154 to 158,CCN(CC)C(=O)Cc1c(N)n[nH]c1-c1ccc(OC)cc1
2,137 to 139,CNC(=O)c1c(SC)c2cc(OC)ccc2n1C
3,148,COc1cc2c(c(C(C(N)=O)c3ccccc3)c1)CC(C)O2 (configuration not stated)
4,205,Cc1c(CC=CN2CCN3c4cc(F)ccc4CCC3C2)cnn1-c1cc(N(C)C)nc(N)n1 (configuration not stated)
5,99 to 100,CC(C)=CCOc1ccc(C(=O)C=Cc2ccncc2)c(O)c1
6,62 to 68,CCC(C(=O)C(=O)O)c1ccccc1 (configuration not stated)
7,155 to 156,CC(C)(C)c1cc(C(O)C#Cc2ccc(C(=O)O)cc2)cc(C(C)(C)C)c1OCOCC[Si](C)(C)C (configuration not stated)
8,102,O=C1CC2(CC2)CC(=O)O1
9,216 to 218,CC(C(=O)O)c1ccc2cc(OCc3ccc4ccccc4c3)ccc2c1 (configuration not stated)
10,168 to 171,CSC1=NC(C)(C)SC1=NO
11,67,O=C(CCCl)n1ccc2ccccc21
12,166,NC(=O)C(N)c1c(Cl)cccc1Cl (configuration not stated)
13,82 to 84,CC(=NOCCOc1ccc(CC2SC(=O)NC2=O)cc1)c1cccc(Cl)c1 (configuration not stated)
14,203 to 204,O=C(O)c1cn(C2CC2)c2nc(N3CCC(c4ccccn4)C3)c(F)cc2c1=O (configuration not stated)
15,101 to 105,CCSC(=S)SC1NC(=O)C1C(C)OC(C)=O (mixture of isomers)
16,196,Cc1ccccc1CC(=O)N1C[C@@H]2C(=O)CCC(c3ccccc3)(c3ccccc3)[C@@H]2C1 (racemic)
17,86 to 87,CCOC(=O)c1cccc(Cc2ccc3ccccc3c2O)c1
18,71 to 75,CCN(CCO)Cc1cc(Nc2nc(Nc3cc4c(cc3OC)CCN(CC(=O)N(C)C)CC4)ncc2Cl)ccc1F
19,50 to 51,COCCc1sc(C(C)(O)c2nc(C)c(CCOC)s2)nc1C
20,210,O=C(Nc1ccc2nc(CN3CCCC3)ccc2c1)c1ccc(-c2ccc(F)cc2)nc1
21,167 to 169,O=C(NC(=O)c1c(F)cccc1F)Nc1cc(C(F)(F)F)ccn1
